Source: patent US20250163104A1, “MACROCYCLIC IMMUNOMODULATORS” (priority 2021, published 2025)
Where a SMILES comes first, the peptide text is derived from it. Bridges are numbered along the chain shown (N, C = ends). [ ]: non-standard residue; d: D form. The star is where a group is joined. Phe(4-COOH) = N[C@@H](Cc1ccc(C(=O)O)cc1)C(=O)O; Bip = N[C@@H](Cc1ccc(-c2ccccc2)cc1)C(=O)O; Phe(3-OMe) = COc1cccc(C[C@H](N)C(=O)O)c1; Phe(3-Me) = Cc1cccc(C[C@H](N)C(=O)O)c1; 4Pal = N[C@@H](Cc1ccncc1)C(=O)O; Cit = NC(=O)NCCC[C@H](N)C(=O)O; Carboxymethyl = O=C(O)C*; Nle = CCCC[C@H](N)C(=O)O; Orn = NCCC[C@H](N)C(=O)O; Dab = NCC[C@H](N)C(=O)O; Dap = NC[C@H](N)C(=O)O

These molecules were tested against T1, human PD-1 / PD-L1-Ig binding on Jurkat cell line over-expressing human PD-1 (Jurkat-PD-1) (Homo sapiens, UniProt Q15116) (assay: Jurkat-PD-1 Cell Binding High-Content Screening Assay (CBA)). Details: Jurkat-PD-1 cells, PE-labeled PD-L1-Ig 20 nM final; read-out: Jurkat HPD1_PDL1 IC50.
T1 construct: expressed in transfected cells; host or cells: Jurkat
Type: cell-based
Outline: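 Compounds were preincubated with Jurkat-hPD-1 cells in DMEM plus 10% fetal calf serum for 2 h at 37° C. Phycoerythrin-labeled PD-L1-Ig (20 nM final) was then added for 1 hour. Cells were fixed in 4% paraformaldehyde with Hoechst 33342, and bound fluorescence was quantified by high-content imaging.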

T1 sequence (Q15116 25-288): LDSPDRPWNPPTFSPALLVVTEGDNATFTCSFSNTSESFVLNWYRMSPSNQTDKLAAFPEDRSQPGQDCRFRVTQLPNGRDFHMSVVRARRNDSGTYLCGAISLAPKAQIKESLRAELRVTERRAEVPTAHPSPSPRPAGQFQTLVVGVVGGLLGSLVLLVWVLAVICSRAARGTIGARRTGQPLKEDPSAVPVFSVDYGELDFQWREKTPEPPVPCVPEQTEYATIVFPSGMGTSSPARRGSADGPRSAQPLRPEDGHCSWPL

SMILES | IC50
CCCC[C@@H]1NC(=O)[C@H](CCN)NC(=O)[C@@H](CC(C)C)NC(=O)[C@H](CCCN)NC(=O)[C@H](C(C)C)NC(=O)[C@H](Cc2ccc(-c3ccccc3)cc2)NC(=O)[C@H](C(C)C)NC(=O)[C@H](Cc2c[nH]c3ccccc23)NC(=O)[C@H](CC(=O)O)NC(=O)[C@H](Cc2ccc(O)cc2)NC(=O)[C@H](Cc2ccc(OCC(=O)O)cc2)NC(=O)CSC[C@@H](C(=O)N[C@@H](C)C(N)=O)NC(=O)[C@H]([C@@H](C)O)NC(=O)[C@H](C(C)C)NC1=O [Compound 1170] ({CH2CO}-Y(Carboxymethyl)YDWV[Bip]V[Orn][dL][Dab][Nle]VTCA-NH2; thioether N-14) | 10.8 nM
CCCC[C@@H]1NC(=O)[C@H](CCN)NC(=O)[C@@H](CC(C)C)NC(=O)[C@H](CCCN)NC(=O)[C@H](C(C)C)NC(=O)[C@H](Cc2ccc(-c3ccccc3)cc2)NC(=O)[C@H](C(C)C)NC(=O)[C@H](Cc2c[nH]c3ccccc23)NC(=O)[C@H](CC(=O)O)NC(=O)[C@H](Cc2ccc(O)cc2)NC(=O)[C@H](CC(N)=O)NC(=O)CSC[C@@H](C(=O)N[C@@H](C)C(N)=O)NC(=O)[C@H]([C@@H](C)O)NC(=O)[C@H](C(C)C)NC1=O [Compound 1171] ({CH2CO}-NYDWV[Bip]V[Orn][dL][Dab][Nle]VTCA-NH2; thioether N-14) | 26.4 nM
CCCC[C@@H]1NC(=O)[C@H](CCCNC(=N)N)NC(=O)[C@@H](CC(C)C)NC(=O)[C@H](CCCN)NC(=O)[C@H](CCCNC(N)=O)NC(=O)[C@H](Cc2ccc(-c3ccccc3)cc2)NC(=O)[C@H](C(C)C)NC(=O)[C@H](Cc2c[nH]c3ccccc23)NC(=O)[C@H](CC(=O)O)NC(=O)[C@H](Cc2ccc(O)cc2)NC(=O)[C@H](CN)NC(=O)CSC[C@@H](C(=O)N[C@@H](C)C(N)=O)NC(=O)[C@H]([C@@H](C)O)NC(=O)[C@H](C(C)C)NC1=O [Compound 1175] ({CH2CO}-[Dap]YDWV[Bip][Cit][Orn][dL]R[Nle]VTCA-NH2; thioether N-14) | 82 nM
CCCC[C@@H]1NC(=O)[C@H](CCCNC(=N)N)NC(=O)[C@@H](CC(C)C)NC(=O)[C@H](CCCN)NC(=O)[C@H](CCCNC(N)=O)NC(=O)[C@H](Cc2ccc(-c3ccccc3)cc2)NC(=O)[C@H](C(C)C)NC(=O)[C@H](Cc2c[nH]c3ccccc23)NC(=O)[C@H](CC(=O)O)NC(=O)[C@H](Cc2ccc(O)cc2)NC(=O)[C@H](Cc2ccc(OCC(=O)O)cc2)NC(=O)CSC[C@@H](C(=O)N[C@@H](C)C(N)=O)NC(=O)[C@H]([C@@H](C)O)NC(=O)[C@H](C(C)C)NC1=O [Compound 1176] ({CH2CO}-Y(Carboxymethyl)YDWV[Bip][Cit][Orn][dL]R[Nle]VTCA-NH2; thioether N-14) | 75.7 nM
CCCC[C@@H]1NC(=O)[C@H](CCCNC(=N)N)NC(=O)[C@@H](CC(C)C)NC(=O)[C@H](CCCN)NC(=O)[C@H](CCCNC(N)=O)NC(=O)[C@H](Cc2ccc(-c3ccccc3)cc2)NC(=O)[C@H](C(C)C)NC(=O)[C@H](Cc2c[nH]c3ccccc23)NC(=O)[C@H](CC(=O)O)NC(=O)[C@H](Cc2ccc(O)cc2)NC(=O)[C@H](CC(N)=O)NC(=O)CSC[C@@H](C(=O)N[C@@H](C)C(N)=O)NC(=O)[C@H]([C@@H](C)O)NC(=O)[C@H](C(C)C)NC1=O [Compound 1177] ({CH2CO}-NYDWV[Bip][Cit][Orn][dL]R[Nle]VTCA-NH2; thioether N-14) | 78.9 nM
CC[C@H](C)[C@@H]1NC(=O)[C@H](Cc2ccc(-c3ccccc3)cc2)NC(=O)[C@H](C(C)C)NC(=O)[C@H](Cc2cccc(OC)c2)NC(=O)[C@H](CC(=O)O)NC(=O)[C@H](Cc2ccc(C(=O)O)cc2)NC(=O)[C@H](Cc2ccncc2)NC(=O)CSC[C@@H](C(=O)N[C@@H](C)C(N)=O)NC(=O)[C@H]([C@@H](C)O)NC(=O)[C@H](C(C)C)NC(=O)[C@H](CC(C)C)NC(=O)[C@H](CCN)NC(=O)[C@@H](CC(C)C)NC(=O)[C@H](CCCN)NC1=O [Compound 1181] | 12 nM

The next molecules have a lower IC50 than those just listed; values first:

IC50 | SMILES
6.4 nM | CC(C)C[C@H]1NC(=O)[C@H](CCCN)NC(=O)[C@H](C(C)C)NC(=O)[C@H](Cc2ccc(-c3ccccc3)cc2)NC(=O)[C@H](C(C)C)NC(=O)[C@H](Cc2c[nH]c3ccccc23)NC(=O)[C@H](CC(=O)O)NC(=O)[C@H](Cc2ccc(O)cc2)NC(=O)[C@H](CN)NC(=O)CSC[C@@H](C(=O)N[C@@H](C)C(N)=O)NC(=O)[C@H]([C@@H](C)O)NC(=O)[C@H](C(C)C)NC(=O)[C@H](CC2CCCCC2)NC(=O)[C@H](CCN)NC1=O [Compound 1172]
9.7 nM | CC(C)C[C@H]1NC(=O)[C@H](CCCN)NC(=O)[C@H](C(C)C)NC(=O)[C@H](Cc2ccc(-c3ccccc3)cc2)NC(=O)[C@H](C(C)C)NC(=O)[C@H](Cc2c[nH]c3ccccc23)NC(=O)[C@H](CC(=O)O)NC(=O)[C@H](Cc2ccc(O)cc2)NC(=O)[C@H](Cc2ccc(OCC(=O)O)cc2)NC(=O)CSC[C@@H](C(=O)N[C@@H](C)C(N)=O)NC(=O)[C@H]([C@@H](C)O)NC(=O)[C@H](C(C)C)NC(=O)[C@H](CC2CCCCC2)NC(=O)[C@H](CCN)NC1=O [Compound 1173]
4.1 nM | Cc1cccc(C[C@@H]2NC(=O)[C@H](CC(=O)O)NC(=O)[C@H](Cc3ccc(C(=O)O)cc3)NC(=O)[C@H](Cc3ccncc3)NC(=O)CSC[C@@H](C(=O)N[C@@H](C)C(N)=O)NC(=O)[C@H]([C@@H](C)O)NC(=O)[C@H](C(C)C)NC(=O)[C@H](CC(C)C)NC(=O)[C@H](CCN)NC(=O)[C@@H](CC(C)C)NC(=O)[C@H](CCCN)NC(=O)[C@H](CCCNC(N)=O)NC(=O)[C@H](Cc3ccc(-c4ccccc4)cc3)NC(=O)[C@H](C(C)C)NC2=O)c1 [Compound 1178] ({CH2CO}-[4Pal][Phe(4-COOH)]D[Phe(3-Me)]V[Bip][Cit][Orn][dL][Dab]LVTCA-NH2; thioether N-14)
5.8 nM | COc1cccc(C[C@@H]2NC(=O)[C@H](CC(=O)O)NC(=O)[C@H](Cc3ccc(C(=O)O)cc3)NC(=O)[C@H](Cc3ccncc3)NC(=O)CSC[C@@H](C(=O)N[C@@H](C)C(N)=O)NC(=O)[C@H]([C@@H](C)O)NC(=O)[C@H](C(C)C)NC(=O)[C@H](CC(C)C)NC(=O)[C@H](CCN)NC(=O)[C@@H](CC(C)C)NC(=O)[C@H](CCCN)NC(=O)[C@H](CCCNC(N)=O)NC(=O)[C@H](Cc3ccc(-c4ccccc4)cc3)NC(=O)[C@H](C(C)C)NC2=O)c1 [Compound 1179] ({CH2CO}-[4Pal][Phe(4-COOH)]D[Phe(3-OMe)]V[Bip][Cit][Orn][dL][Dab]LVTCA-NH2; thioether N-14)
8.9 nM | CC[C@H](C)[C@@H]1NC(=O)[C@H](Cc2ccc(-c3ccccc3)cc2)NC(=O)[C@H](C(C)C)NC(=O)[C@H](Cc2cccc(C)c2)NC(=O)[C@H](CC(=O)O)NC(=O)[C@H](Cc2ccc(C(=O)O)cc2)NC(=O)[C@H](Cc2ccncc2)NC(=O)CSC[C@@H](C(=O)N[C@@H](C)C(N)=O)NC(=O)[C@H]([C@@H](C)O)NC(=O)[C@H](C(C)C)NC(=O)[C@H](CC(C)C)NC(=O)[C@H](CCN)NC(=O)[C@@H](CC(C)C)NC(=O)[C@H](CCCN)NC1=O [Compound 1180]
8.2 nM | Cc1cccc(C[C@@H]2NC(=O)[C@H](CC(=O)O)NC(=O)[C@H](Cc3ccc(C(=O)O)cc3)NC(=O)[C@H](Cc3ccncc3)NC(=O)CSC[C@@H](C(=O)N[C@@H](C)C(N)=O)NC(=O)[C@H]([C@@H](C)O)NC(=O)[C@H](C(C)C)NC(=O)[C@H](CC(C)C)NC(=O)[C@H](CCN)NC(=O)[C@@H](CC(C)C)NC(=O)[C@H](CCCN)NC(=O)[C@H](C(C)C)NC(=O)[C@H](Cc3ccc(-c4ccccc4)cc3)NC(=O)[C@H](C(C)C)NC2=O)c1 [Compound 1182] ({CH2CO}-[4Pal][Phe(4-COOH)]D[Phe(3-Me)]V[Bip]V[Orn][dL][Dab]LVTCA-NH2; thioether N-14)
